Data published in patent US6376537B1, “Cancer treatment” (priority 2000, dated 2002).

Columns and labels:
metastatic colon cancer = assay: Colon cancer case reports, oral Simvastatin treatment; format: in vivo, human; settings: Case #1, 20 mg daily raised to 80 mg; over three to four months
Description: (§1) Its use according to this invention in the treatment of malignant disease consists of daily administration of an 80 mg tablet orally.
(§2) In order to avoid unforeseen side effects, the treatment is initiated at about 20 mg dose tablet once daily for one week. The dose then is increased to about 40 mg once daily for an additional week. The following week the dose is increased to about 60 mg and on the fourth week the dose is increased to about 80 mg (two tablets of 40 mg each), and to remain so indefinitely. The intervals for stepping up the dosage can vary.
Case #1: business person who underwent hemicolectomy for adenocarcinoma of the colon in 1993 was presented in 1995 to Cedars Sinai Medical Center Liver Team for possible cryotherapy. At that time they had multiple masses in both lobes of the liver as well as outside their liver and multiple nodules in both lungs. Clinically they were bedridden, weak and malnourished. They were rejected as a suitable candidate for needle cryotherapy because of their advanced disease, and was considered unrescuable with a life expectancy of several weeks.
The dose was increased by 20 mg increments every two weeks up to the dose of 80 mg. […] […] gained 27 pounds, became normally active, including extensive travel around the world.
Case #2: person underwent hemicolectomy for cancer of the colon in 1995 because of intestinal obstruction. […]

hepatocellular carcinoma = assay: Liver cancer case report, oral Simvastatin treatment; format: in vivo, human
Description: as §1, §2

## CCC(C)(C)C(=O)O[C@H]1C[C@@H](C)C=C2C=C[C@H](C)[C@H](CC[C@@H]3C[C@@H](O)CC(=O)O3)[C@H]21 [Simvastatin]
Metastatic colon cancer
  weight gain: 27 pounds
Hepatocellular carcinoma; patient, baseline above 55,000, started January 1999, value by April of 1999
  tumor marker alpha fetoprotein: less than 8
Hepatocellular carcinoma; same patient, value in March 2000
  tumor marker alpha fetoprotein: 2.4
